The supplement of paper PMC11451515

Key:
Conditions in all cases: 48 h
[1] = tested on: P12-Ichikawa; experiment: cell viability relative to DMSO control; higher = less cytotoxic
In short: (§1)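 Cells were incubated for 48 h at 37°C before CellTiter-Glo One luminescence was read. The cells were NOMO1 or SEM (500 cells/well) or P12-Ichikawa (1000 cells/well) leukemia cells, adapted for at least four passages in each medium and seeded in 1536-well plates (5 μl). Dosing used library compounds in DMSO applied by pin over 11 threefold points, 47 μM to 0.79 nM. Viability is the per-plate percentage of DMSO wells, with cell-free wells as background.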

[2] = tested on: SEM cells; experiment: as above
In short: as §1

[3] = tested on: NOMO1; experiment: AUC of viability dose-response curve (% viability x log10 dose units); higher = less sensitive
In short: (§2)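 Area under the curve was integrated by trapezoidal rule from a log-logistic fit of normalised viability, with curves exceeding full viability scaled and quality-control failures removed. The fit had four parameters over log10 doses. Viability came from CellTiter-Glo One luminescence, normalised per plate to DMSO and cell-free wells, after leukemia cells adapted to each medium (500 or 1000 cells/well, 1536-well plates) were exposed to library compounds in DMSO for 48 h at 37°C. The 11 threefold doses ran from 47 μM to 0.79 nM.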

[4] = tested on: SEM cells; experiment: as above
In short: as §2

[5] = tested on: NOMO1; experiment: cell viability relative to DMSO control; higher = less cytotoxic
In short: as §1

[6] = tested on: P12-Ichikawa; experiment: AUC of viability dose-response curve (% viability x log10 dose units); higher = less sensitive
In short: as §2

CN(C)CCCN1c2ccccc2CCc2ccc(Cl)cc21
Conditions | cell viability [%]
[1], RPMI 5 mM glucose + 10% dialyzed FBS, 0.000781 µM | 71
[1], RPMI 5 mM glucose + 10% dialyzed FBS, 0.00234 µM | 155
[1], RPMI 5 mM glucose + 10% dialyzed FBS, 0.00702 µM | 125
[1], RPMI 5 mM glucose + 10% dialyzed FBS, 0.0211 µM | 145
[1], RPMI 5 mM glucose + 10% dialyzed FBS, 0.0632 µM | 138
[1], RPMI 5 mM glucose + 10% dialyzed FBS, 0.19 µM | 134
[1], RPMI 5 mM glucose + 10% dialyzed FBS, 0.569 µM | 142
[1], RPMI 5 mM glucose + 10% dialyzed FBS, 1.71 µM | 142
[1], RPMI 5 mM glucose + 10% dialyzed FBS, 5.12 µM | 134
[1], RPMI 5 mM glucose + 10% dialyzed FBS, 15.4 µM | 125
[1], RPMI 5 mM glucose + 10% dialyzed FBS, 46.1 µM | 82.9
[2], HPLM + 10% dialyzed FBS, 0.000781 µM | 122
[2], HPLM + 10% dialyzed FBS, 0.00234 µM | 132
[2], HPLM + 10% dialyzed FBS, 0.00702 µM | 122
[2], HPLM + 10% dialyzed FBS, 0.0211 µM | 134
[2], HPLM + 10% dialyzed FBS, 0.0632 µM | 118
[2], HPLM + 10% dialyzed FBS, 0.19 µM | 122
[2], HPLM + 10% dialyzed FBS, 0.569 µM | 125
[2], HPLM + 10% dialyzed FBS, 1.71 µM | 122
[2], HPLM + 10% dialyzed FBS, 5.12 µM | 105
[2], HPLM + 10% dialyzed FBS, 15.4 µM | 109
[2], HPLM + 10% dialyzed FBS, 46.1 µM | 39.6

AUC of viability dose-response curve
Conditions | HPLM + 10% dialyzed FBS | RPMI 5 mM glucose + 10% FBS | RPMI 5 mM glucose + 10% dialyzed FBS
[3] | 431 | 448 | 441
[4] | 453 | 453 | 452

COC/1=C/C=C2\C(=C/C1=O)[C@H](CCC3=CC(=C(OC)C(=C23)OC)OC)NC(C)=O
cell viability [%]
Conditions | [1] | [2] | [5]
HPLM + 10% dialyzed FBS, 0.000781 µM | 45.1 | 32.1 | 36.2
HPLM + 10% dialyzed FBS, 0.00234 µM | 26.4 | 25.8 | 33.8
HPLM + 10% dialyzed FBS, 0.00702 µM | 14.5 | 26.1 | 45.9
HPLM + 10% dialyzed FBS, 0.0211 µM | 12.8 | 23.7 | 49.8
HPLM + 10% dialyzed FBS, 0.0632 µM | 10.9 | 18.7 | 40.4
HPLM + 10% dialyzed FBS, 0.19 µM | 9.53 | 14.5 | 27
HPLM + 10% dialyzed FBS, 0.569 µM | 6.89 | 11 | 30.5
HPLM + 10% dialyzed FBS, 1.71 µM | 4.02 | 11.5 | 25.3
HPLM + 10% dialyzed FBS, 5.12 µM | 3.71 | 10.1 | 19.8
HPLM + 10% dialyzed FBS, 15.4 µM | 3.18 | 10 | 20
HPLM + 10% dialyzed FBS, 46.1 µM | 1.19 | 3.47 | 10.6
RPMI 5 mM glucose + 10% FBS, 0.000781 µM | 32.3 | 19 | 23.7
RPMI 5 mM glucose + 10% FBS, 0.00234 µM | 19.7 | 19.2 | 20
RPMI 5 mM glucose + 10% FBS, 0.00702 µM | 15.6 | 15.9 | 17.1
RPMI 5 mM glucose + 10% FBS, 0.0211 µM | 10.3 | 15.9 | 20.2
RPMI 5 mM glucose + 10% FBS, 0.0632 µM | 9.46 | 12.3 | 21.5
RPMI 5 mM glucose + 10% FBS, 0.19 µM | 7.35 | 8.3 | 24.3
RPMI 5 mM glucose + 10% FBS, 0.569 µM | 5.7 | 5.66 | 17.9
RPMI 5 mM glucose + 10% FBS, 1.71 µM | 4.23 | 6.98 | 7.99
RPMI 5 mM glucose + 10% FBS, 5.12 µM | 4.86 | 5.01 | 12.5
RPMI 5 mM glucose + 10% FBS, 15.4 µM | 3.24 | 4.81 | 10.8
RPMI 5 mM glucose + 10% FBS, 46.1 µM | 2.12 | 2.96 | 2.76
RPMI 5 mM glucose + 10% dialyzed FBS, 0.000781 µM | 41.3 | 20.9 | 23.7
RPMI 5 mM glucose + 10% dialyzed FBS, 0.00234 µM | 34.3 | 20.5 | 21.5
RPMI 5 mM glucose + 10% dialyzed FBS, 0.00702 µM | 21.5 | 21.6 | 23.3
RPMI 5 mM glucose + 10% dialyzed FBS, 0.0211 µM | 16 | 21.8 | 29.1
RPMI 5 mM glucose + 10% dialyzed FBS, 0.0632 µM | 13.2 | 10.7 | 24.9
RPMI 5 mM glucose + 10% dialyzed FBS, 0.19 µM | 8.83 | 8.08 | 21.3
RPMI 5 mM glucose + 10% dialyzed FBS, 0.569 µM | 8.91 | 7.02 | 23.5
RPMI 5 mM glucose + 10% dialyzed FBS, 1.71 µM | 4.52 | 5.24 | 13.1
RPMI 5 mM glucose + 10% dialyzed FBS, 5.12 µM | 4.83 | 4.72 | 14.3
RPMI 5 mM glucose + 10% dialyzed FBS, 15.4 µM | 3.55 | 4.63 | 12.8
RPMI 5 mM glucose + 10% dialyzed FBS, 46.1 µM | 1.22 | 2.48 | 3.31

AUC of viability dose-response curve
Conditions | HPLM + 10% dialyzed FBS | RPMI 5 mM glucose + 10% FBS | RPMI 5 mM glucose + 10% dialyzed FBS
[4] | 80.3 | 49.8 | 54.6
[6] | 54.5 | 46.5 | 64.7

CCC(=C/[C@H](C)C/C=C/C(C)=C/[C@@H](C)C(=O)[C@@H](C)[C@H](O)[C@@H](C)C/C(C)=C/C(=O)O)/C=C/[C@@H]1OC(=O)C=C[C@@H]1C
cell viability [%]
Conditions | [1] | [2] | [5]
HPLM + 10% dialyzed FBS, 0.000781 µM | 110 | 59.9 | 118
HPLM + 10% dialyzed FBS, 0.00234 µM | 114 | 88.8 | 115
HPLM + 10% dialyzed FBS, 0.00702 µM | 116 | 77.7 | 109
HPLM + 10% dialyzed FBS, 0.0211 µM | 117 | 79.9 | 107
HPLM + 10% dialyzed FBS, 0.0632 µM | 118 | 89.2 | 118
HPLM + 10% dialyzed FBS, 0.19 µM | 115 | 75.7 | 123
HPLM + 10% dialyzed FBS, 0.569 µM | 129 | 62.4 | 125
HPLM + 10% dialyzed FBS, 1.71 µM | 109 | 20.6 | 83.8
HPLM + 10% dialyzed FBS, 5.12 µM | 6.55 | 5.63 | 4.07
HPLM + 10% dialyzed FBS, 15.4 µM | 4.69 | 5.09 | 2.4
HPLM + 10% dialyzed FBS, 46.1 µM | 7.83 | 7.74 | 13.2
RPMI 5 mM glucose + 10% FBS, 0.000781 µM | 106 | 83 | 104
RPMI 5 mM glucose + 10% FBS, 0.00234 µM | 119 | 96.4 | 101
RPMI 5 mM glucose + 10% FBS, 0.00702 µM | 111 | 93.2 | 110
RPMI 5 mM glucose + 10% FBS, 0.0211 µM | 127 | 95.3 | 99.2
RPMI 5 mM glucose + 10% FBS, 0.0632 µM | 121 | 106 | 114
RPMI 5 mM glucose + 10% FBS, 0.19 µM | 118 | 70.4 | 114
RPMI 5 mM glucose + 10% FBS, 0.569 µM | 114 | 45.5 | 109
RPMI 5 mM glucose + 10% FBS, 1.71 µM | 96.1 | 13 | 110
RPMI 5 mM glucose + 10% FBS, 5.12 µM | 5.34 | 6.23 | 3.02
RPMI 5 mM glucose + 10% FBS, 15.4 µM | 3.16 | 5.5 | 1.72
RPMI 5 mM glucose + 10% FBS, 46.1 µM | 8.25 | 10.9 | 14.7
RPMI 5 mM glucose + 10% dialyzed FBS, 0.000781 µM | 99.9 | 84 | 99.7
RPMI 5 mM glucose + 10% dialyzed FBS, 0.00234 µM | 107 | 86 | 108
RPMI 5 mM glucose + 10% dialyzed FBS, 0.00702 µM | 109 | 95.4 | 113
RPMI 5 mM glucose + 10% dialyzed FBS, 0.0211 µM | 115 | 91.1 | 107
RPMI 5 mM glucose + 10% dialyzed FBS, 0.0632 µM | 107 | 82.9 | 122
RPMI 5 mM glucose + 10% dialyzed FBS, 0.19 µM | 111 | 77.7 | 120
RPMI 5 mM glucose + 10% dialyzed FBS, 0.569 µM | 108 | 52 | 120
RPMI 5 mM glucose + 10% dialyzed FBS, 1.71 µM | 91.1 | 18.8 | 90.2
RPMI 5 mM glucose + 10% dialyzed FBS, 5.12 µM | 5.62 | 7.36 | 3.22
RPMI 5 mM glucose + 10% dialyzed FBS, 15.4 µM | 4.96 | 6.69 | 2.11
RPMI 5 mM glucose + 10% dialyzed FBS, 46.1 µM | 13.8 | 8.55 | 14.7

AUC of viability dose-response curve
Conditions | HPLM + 10% dialyzed FBS | RPMI 5 mM glucose + 10% FBS | RPMI 5 mM glucose + 10% dialyzed FBS
[3] | 351 | 365 | 355
[6] | 361 | 355 | 359
